Results reported in ChEMBL document CHEMBL3994582, “A2B adenosine receptor antagonists: Design, synthesis and biological evaluation of novel xanthine derivatives” (Eur J Med Chem, 2017).

What was measured:
Adenosine receptor A2b = target: T1, Adenosine receptor A2b (Homo sapiens, UniProt P29275); experiment: Displacement of [3H]-MRS-1754 from human adenosine receptor A2b expressed in HEK293 cell membranes after 90 mins by liquid scintillation counting method
T1 sequence (P29275 whole entry): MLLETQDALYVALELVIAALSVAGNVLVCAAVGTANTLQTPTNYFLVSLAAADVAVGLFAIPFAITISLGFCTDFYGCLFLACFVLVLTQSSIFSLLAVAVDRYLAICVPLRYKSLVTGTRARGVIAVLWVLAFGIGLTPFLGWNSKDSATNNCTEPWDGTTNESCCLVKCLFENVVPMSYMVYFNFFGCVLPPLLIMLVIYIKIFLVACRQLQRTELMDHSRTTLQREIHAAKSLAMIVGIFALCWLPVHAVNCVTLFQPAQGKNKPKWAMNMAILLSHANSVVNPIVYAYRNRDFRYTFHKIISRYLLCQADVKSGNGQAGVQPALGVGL

[1] = target: T2, Adenosine receptor A1 (Homo sapiens) (UniProt P30542); experiment: Displacement of [3H]DPCPX from human adenosine receptor A1 expressed in HEK293 cell membranes at 0.1 uM after 90 mins by liquid scintillation counting method relative to control
T2 sequence (whole entry): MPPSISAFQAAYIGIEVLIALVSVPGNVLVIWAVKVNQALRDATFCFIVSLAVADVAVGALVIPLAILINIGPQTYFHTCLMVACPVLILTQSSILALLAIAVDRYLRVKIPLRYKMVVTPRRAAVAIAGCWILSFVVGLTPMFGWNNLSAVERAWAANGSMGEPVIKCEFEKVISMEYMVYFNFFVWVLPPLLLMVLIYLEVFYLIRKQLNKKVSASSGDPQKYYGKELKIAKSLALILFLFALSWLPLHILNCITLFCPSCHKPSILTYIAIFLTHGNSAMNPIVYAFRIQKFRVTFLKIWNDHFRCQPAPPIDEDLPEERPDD

Adenosine receptor A2a = Adenosine receptor A2a (Homo sapiens, UniProt P29274); experiment: Displacement of [3H]-ZM-241385 from human adenosine receptor A2a expressed in HEK293 cell membranes at 0.1 uM after 90 mins by liquid scintillation counting method relative to control
Chain of Adenosine receptor A2a (P29274 whole entry): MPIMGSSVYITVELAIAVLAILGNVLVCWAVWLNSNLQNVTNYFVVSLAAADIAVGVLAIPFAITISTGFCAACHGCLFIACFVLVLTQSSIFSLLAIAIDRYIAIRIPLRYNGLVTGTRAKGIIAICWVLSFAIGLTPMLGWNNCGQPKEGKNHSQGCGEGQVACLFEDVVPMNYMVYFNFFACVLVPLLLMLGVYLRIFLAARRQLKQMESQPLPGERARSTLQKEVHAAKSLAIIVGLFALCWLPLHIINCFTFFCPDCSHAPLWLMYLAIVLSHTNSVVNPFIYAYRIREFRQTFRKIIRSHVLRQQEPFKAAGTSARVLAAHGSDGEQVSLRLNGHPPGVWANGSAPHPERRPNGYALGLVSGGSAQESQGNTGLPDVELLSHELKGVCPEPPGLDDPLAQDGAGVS

[2] = target: T3, Adenosine receptor A3 (Homo sapiens) (UniProt P0DMS8); experiment: Displacement of [3H]-HEM-ADO from human adenosine receptor A3 expressed in HEK293 cell membranes at 1 uM after 90 mins by liquid scintillation counting method relative to control
T3 sequence (whole entry): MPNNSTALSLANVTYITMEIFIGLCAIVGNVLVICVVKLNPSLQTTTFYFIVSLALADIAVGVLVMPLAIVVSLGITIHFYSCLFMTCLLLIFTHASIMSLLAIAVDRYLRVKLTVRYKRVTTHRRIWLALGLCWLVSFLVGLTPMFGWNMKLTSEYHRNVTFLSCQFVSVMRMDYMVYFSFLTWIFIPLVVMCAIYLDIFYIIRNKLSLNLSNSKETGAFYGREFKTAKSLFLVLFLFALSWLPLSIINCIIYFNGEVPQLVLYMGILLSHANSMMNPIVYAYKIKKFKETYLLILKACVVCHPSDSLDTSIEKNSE

Liver [3] = experiment: Metabolic stability in human liver microsomes assessed as metabolic rate per mg protein preincubated for 5 mins followed by NADPH addition measured up to 30 mins by LC-MS/MS analysis; type: ADME, microsome; conditions: 0.5 h
Liver [4] = experiment: Metabolic stability in mouse liver microsomes assessed as metabolic rate per mg protein preincubated for 5 mins followed by NADPH addition measured up to 30 mins by LC-MS/MS analysis; type: ADME, microsome; conditions: 0.5 h

Compound | Ki (Adenosine receptor A2b) [nM] | inhibition [1] [%] | inhibition (Adenosine receptor A2a) [%] | inhibition [2] [%] | Drug metabolism (Liver [3]) [nmol/min/mg] | Drug metabolism (Liver [4]) [nmol/min/mg]
CCCn1c(=O)c2[nH]c(-c3cnn(CC(=O)N4CCN(c5ccc(F)c(Cl)c5)CC4)c3)nc2n(CCC)c1=O | 1.8 | 56 | 72 | 17 | – | –
CCCn1c(=O)c2[nH]c(-c3cnn(CC4CCN(c5ccc(C)cc5)C4)c3)nc2n(CCC)c1=O (stereo not given) | 12 | 26 | 51 | 2 | 0.66 | 0.38
CCCn1c(=O)c2[nH]c(-c3cnn(CC4CC(=O)N(c5cccc(OC(F)(F)F)c5)C4)c3)nc2n(CC)c1=O (stereo not given) | 17.5 | 15 | 16 | 3 | 0.4 | 0.25
CCCn1c(=O)c2[nH]c(-c3cnn(CC4CCN(c5cccc(F)c5)C4=O)c3)nc2n(CCC)c1=O (stereo not given) | 43 | – | – | – | – | –
CCCn1c(=O)c2[nH]c(-c3cnn(CC4CC(=O)N(c5cccc(C)c5)C4)c3)nc2n(CCC)c1=O (stereo not given) | 10.7 | 29 | 0 | 0 | 0.18 | 0.46
CCCn1c(=O)c2[nH]c(-c3cnn(CC4CC(=O)N(c5cccc(OC)c5)C4)c3)nc2n(CCC)c1=O (stereo not given) | 21.6 | 22 | 46 | 11 | 0.18 | 0.41
CCCn1c(=O)c2[nH]c(-c3cnn(CCC4CC(=O)N(c5cccc(C(F)(F)F)c5)C4)c3)nc2n(CCC)c1=O (stereo not given) | 2.6 | 40 | 65 | 29 | 0.14 | 0.3
CCCn1c(=O)c2[nH]c(-c3cnn(C(C)C4CC(=O)N(c5cccc(C(F)(F)F)c5)C4)c3)nc2n(CCC)c1=O (stereo not given) | 4 | 17 | 15 | 18 | 0.2 | 0.59
CCCn1c(=O)c2[nH]c(-c3cc(OCC4CC(=O)N(c5cccc(C(F)(F)F)c5)C4)no3)nc2n(CCC)c1=O (stereo not given) | 69 | 0 | 0 | 5 | – | –
CCCn1c(=O)c2[nH]c(-c3cc(OCC4CC(=O)N(c5cccc(F)c5)C4)no3)nc2n(CCC)c1=O (stereo not given) | 90 | – | – | – | – | –
CCCn1c(=O)c2[nH]c(-c3cc(OCC4CC(=O)N(c5ccc(F)cc5)C4)no3)nc2n(CCC)c1=O (stereo not given) | 210 | 0 | 0 | 7 | – | –

Next, values leading:

Ki (Adenosine receptor A2b) [nM] | inhibition [1] [%] | inhibition (Adenosine receptor A2a) [%] | inhibition [2] [%] | Drug metabolism (Liver [3]) [nmol/min/mg] | Drug metabolism (Liver [4]) [nmol/min/mg] | Compound
41 | 32 | 68 | 17 | 0.02 | 0.35 | CCCn1c(=O)c2[nH]c(-c3cnn(CC4CC(=O)N(c5cccc(F)c5)C4)c3)nc2n(CCC)c1=O (stereo not given)
23 | 18 | 20 | 2 | 0.15 | 0 | CCCn1c(=O)c2[nH]c(-c3cnn(CC4CC(=O)N(c5ccc(C#N)cc5)C4)c3)nc2n(CCC)c1=O (stereo not given)
4 | 23 | 24 | 0 | 0.13 | 0.24 | CCCn1c(=O)c2[nH]c(-c3cnn(CC4CC(=O)N(c5ccc(OC(F)(F)F)cc5)C4)c3)nc2n(CCC)c1=O (stereo not given)
9.7 | 31 | 42 | 14 | 0.06 | 0.19 | CCCn1c(=O)c2[nH]c(-c3cnn(CC4CC(=O)N(c5ccc(F)cc5)C4)c3)nc2n(CCC)c1=O (stereo not given)
77 | – | – | – | – | – | CCCn1c(=O)c2[nH]c(-c3cnn(CC4CC(=O)N(c5ccc(C(=O)O)cc5)C4)c3)nc2n(CCC)c1=O (stereo not given)
